Measurements reported in patent US20250114331A1, “CONCURRENT TARGETING OF ONCOGENIC PATHWAYS TO ENHANCE CHEMOTHERAPY AND IMMUNOTHERAPY” (THE JOHNS HOPKINS UNIVERSITY, priority 2021, published 2025).
“Also recorded” adds a separate entry of the source.

Columns and labels:
[1] = tested on: H1299, H1437 and A549 cells; test: Apoptosis assay with cisplatin in YAP1-modified cells; assay type: cell-based, human; settings: cisplatin 2 or 5 for 72 hours
Procedure: Apoptosis assay. Cells were incubated for 72 hours with CDDP (2 μM or 5 μM) or normal saline. Apoptosis assays were conducted using PE Annexin V Apoptosis Detection Kit with 7-AAD (BioLegend, San Diego, USA) according to manufacturer's protocol. Treated cells were analyzed by BD FACSCalibur flow cytometer (BD Biosciences, San Jose, USA).

[2] = tested on: H1299, H1437 and A549 cells; test: Cell viability assay with cisplatin in YAP1/STAT3-modified cells; assay type: cell-based, human
Procedure: Cell proliferation assay and viability assay. Cell proliferation and viability were evaluated using Cell Counting Kit-8 (Dojindo Molecular Technologies). For cell proliferation assay, after cells (5×10^3/well) were seeded into 96-well plates with RPMI1640 containing 2% FBS, the optical density of each well was measured every 24 hours for 4 days. We added […] of cell counting kit-8 solution to each well 2 hours before measuring the absorbance (17). For the cell viability assay, after cells were incubated for 48 hours (5×10^3/well), they were exposed to each respective therapeutic agent for 72 hours. Cell viability for each agent was defined as the ratio of absorbance values of the treated cells to control cells (i.e., pharmacologically untreated or genetically unmodified). Absorbance values (450-630 nm) were measured by a Spectra Max 250 96-well Plate Reader (Molecular Devices). Each sample was applied to six wells, and their average rate was calculated. The therapeutic agents used here (in vitro) were cisplatin (Sigma-Aldrich; #P4394), S3I-201 (Santa Cruz Biotechnology; #sc-204304; ref. 18), and verteporfin (MedKoo; #203120).

[3] = tested on: H1299 and H1437 cells; test: Immunoblotting of YAP1, STAT3 and pSTAT3 after drug treatment; assay type: cell-based, human
Procedure: Western blotting. Cells were dissolved in RIPA buffer (Thermo Fisher Scientific) supplemented with proteinase inhibitor and phosphatase inhibitor cocktails (Roche, Mannheim, Germany). After total protein lysate was electrophoretically transferred onto PVDF membrane, the membrane was blocked with 5% skim milk in 0.05% TBS-Tween buffer and incubated at 4° C. overnight with a primary antibody specific to each protein. The membrane was then probed with an appropriate secondary antibody (Cell Signaling Technology, Danvers, USA). β-actin served as an endogenous control. The primary antibodies and dilution ratios were β-actin (Sigma-Aldrich; #A2228; 1:5000), NANOG (D73G4; Cell Signaling Technology; #4903; 1:1000), OCT4 (D705Z; Cell Signaling Technology; #75463; 1:500), SOX2 (EPR3131; Abcam, Cambridge, UK; #ab92494; 1:500), STAT3 (124H6; Cell Signaling Technology; #9139; 1:2000), pSTAT3 (D3A7; Cell Signaling Technology; #9145; 1:1000) and YAP1 (EP1674Y; Abcam, #ab52771; 1:2000).
To determine doses of these drugs that are effective for pathway inhibition, H1299 and H1437 cells were treated with verteporfin or S3I-201 for 72 hours.

[4] = tested on: MB49 derived xenograft; test: MB49 derived xenograft treated with STAT3 inhibitor; assay type: in vivo, C57BL/6 mice; settings: for expression of CSC associated markers and CXCLs in tumor tissues: qRT-PCR
Procedure: In vivo xenograft assay and treatment. For in vivo xenograft, cells were suspended in 100 μL of a 1:1 mixture of serum-free DMEM and Cultrex Stem Cell Qualified Reduced Growth Factor Basement Membrane Extract (Trevigen, Gaithersburg, USA), and then injected subcutaneously into the both flanks of C57BL/6 mice for MB49/UPPL595/BBN975 cells.
YAP1 induces immunosuppression partially through IL6/STAT3 signaling and STAT3 inhibition mimics the antitumor activity of YAP1 attenuation. The present inventors recently reported that YAP1 positively regulates IL6/STAT3 signaling (38) in LUAD.

[5] = tested on: H1437 xenografts; test: H1437 xenograft treatment; assay type: in vivo, NSG mice; settings: verteporfin 50 mg/kg i.p. three times a week; S3I-201 5 mg/kg i.p. every day
Excerpt: (§1) For therapeutic experiments, 4- to 5-week-old NOD/SCID/IL2Ry−/− (NSG) mice were obtained from the Johns Hopkins Medical Institute's (Baltimore, MD) animal care facility. We injected H1299 cells (1×106) and H1437 cells (1×106), which were suspended in the mixture as described above, subcutaneously into both flanks. For the patient-derived xenograft (PDX) models, 13 PDX blocks (CTG0162, 0178, 0502, 0848, 1309, 1351, 1358, 1361, 1762, 1885, 2017, 2481, and 2708) were obtained from Champion Oncology. All these PDXs were established from primary lung adenocarcinoma tumors. The tumor tissues were cut into 4×2 mm pieces and implanted in the subcutaneous spaces of both flanks. When tumor volumes reached to 200+50 mm3, mice were randomly assigned to six experimental groups [control, chemo (cisplatin+gemcitabine), chemo+verteporfin, chemo+S3I-201, “all” (cisplatin+gemcitabine+verteporfin+S3I-201), and verteporfin+S3I-201] at 5 mice per group. Cisplatin (Sigma-Aldrich; #P4394), gemcitabine (Medkoo; #100410), S3I-201 (MedKoo; #202541), and verteporfin (Sigma-Aldrich; #1711461) were used to treat the mice. Cisplatin (2.5 mg/kg) and gemcitabine (120 mg/kg) were administrated via intraperitoneal injection once a week (22). […] Each tumor volume was measured every 3 days. Therapeutic efficacy was evaluated from percentage change of the tumor volume compared with the tumor size before treatment.

[6] = tested on: H1299 xenografts; test: H1299 xenograft treatment; assay type: in vivo, NSG mice; settings: verteporfin 50 mg/kg i.p. three times a week; S3I-201 5 mg/kg i.p. every day
Excerpt: as §1

[7] = tested on: H1299 and H1437 cells; test: qRT-PCR of YAP1 and STAT3 pathway genes after drug treatment for 72 hours; assay type: cell-based, human
Procedure: qRT-PCR. The mRNA expression level of each gene was determined by qRT-PCR. […] We quantified the β-actin mRNA level to normalize the expression levels of the targeted genes. Each sample was tested in triplicate and run three times. Each graph shown in our figures indicates the average mRNA expression level of targeted genes compared with the β-actin expression level, with standard error of mean. To determine doses of these drugs that are effective for pathway inhibition, H1299 and H1437 cells were treated with verteporfin or S3I-201 for 72 hours.

[8] = tested on: pSTAT3; test: Recombinant IL6 stimulation (Western blotting); assay type: cell-based, human; settings: H1299 and H1437 YAP1-sh cells, 0.1, 1, or 10 ng/mL
Procedure: Recombinant IL6 stimulation and neutralization of IL6. For exogenous IL6 stimulation, 5×10^5 cells were seeded in 10-cm dishes. After 48 hours, human recombinant IL6 (0.1, 1, or 10 ng/mL) from PeproTech was added to the cells. They were harvested after 48-hour incubation. To neutralize the IL6, Human/Primate IL6 Antibody (R&D Systems) was administered. We cultured 5×10^5 cells in 10-cm dishes. After 48 hours, antibody (1 mg/mL) was added to the cells. They were then harvested after 24 or 48 hours. Protein expression of each sample was evaluated by Western blotting.

**Q.** `N.N.[Cl][Pt][Cl]` [cisplatin] was tested. Which cells undergoing apoptosis ([1]; YAP1-LV cells versus control cells) did it give?
**A.** Its cells undergoing apoptosis is “lower fractions; also recorded: substantially less apoptosis”.

**Q.** And the cells undergoing apoptosis ([1]; YAP1-sh cells versus control cells)?
**A.** Its cells undergoing apoptosis is “higher fractions of apoptotic cells; also recorded: greater percentages of cells undergoing apoptosis”.

**Q.** And the “sensitivity to cisplatin (cell viability)” value (“sensitivity to cisplatin” below) ([2]; A549 YAP1-LV cells versus control cells, 72 hours)?
**A.** The value was “relatively resistant; also recorded: higher resistance”.

**Q.** What about the “sensitivity to cisplatin” value ([2]; A549 YAP1-LV/STAT3-si cells versus YAP1-LV/STAT3-Ctrl cells) of the same molecule?
**A.** Its value is “restored cisplatin sensitivity”.

**Q.** What about the “sensitivity to cisplatin” value ([2]; H1299 and H1437 YAP1-sh cells versus control cells, 72 hours) of the same molecule?
**A.** Its value is “increased sensitivities; also recorded: greater sensitivity”.

**Q.** And the “sensitivity to cisplatin” value ([2]; YAP1-sh/STAT3-LV cells (H1299 and H1437) versus YAP1-sh/STAT3-Ctrl cells, 72 hours, 5 cisplatin)?
**A.** Its value is “restored cell proliferation and cisplatin resistance; also recorded: less sensitivity”.

**Q.** And the “sensitivity to cisplatin” value ([2]; YAP1-sh/STAT3-si cells (H1299 and H1437) versus single inhibition or control)?
**A.** Its value is “greater sensitivity; also recorded: highest sensitivity”.

**Q.** With `Cc1ccc(S(=O)(=O)OCC(=O)Nc2ccc(C(=O)O)c(O)c2)cc1` [S3I-201] as the molecule, how does the pSTAT3 expression [3] read?
**A.** Its pSTAT3 expression is “suppressed pSTAT3 without affecting YAP1 or total STAT3 expressions; also recorded: suppressed pSTAT3 in a dose-dependent manner”.

**Q.** And the “infiltration of MDSCs (GR-1) and CD8+ T cells in the TME, IHC” value ([4]; mouse, in vivo)?
**A.** Its value is “decreased infiltration of MDSCs (GR-1) and significantly more CD8+ T cells”.

**Q.** And the tumor growth ([4]; mouse, in vivo)?
**A.** Its tumor growth is “significant regression of the tumor growth”.

**Q.** And the “expression of CSC associated markers and CXCLs in tumor tissues” value ([4]; listed as STAT3 inhibitor)?
**A.** Its value is “downregulate different CXCR2 associated ligands”.

**Q.** What about the “expression of CSC associated markers and CXCLs in tumor tissues” value ([4]; listed as STAT-3 inhibitor) of the same molecule?
**A.** The value was “significantly decreased expression of CSC associated markers and CXCLs”.

**Q.** What about the tumor growth [5] of the same molecule?
**A.** The tumor growth was “did not significantly affect tumor growth”.

**Q.** And the tumor growth [6]?
**A.** The tumor growth was “inhibited growth”.

**Q.** What about the “mRNA expression of STAT3 and its targeted genes NRP1 and PROS1” value [7] of the same molecule?
**A.** The value was “suppressed both STAT3 and its targeted genes; also recorded: inhibited mRNA expressions of not only NRP1 and PROS1 (STAT3-targeting genes) but also STAT3”.

**Q.** Which results are given for “IL6: human recombinant IL6 from PeproTech”?
**A.** pSTAT3 level [8]: increased pSTAT3 expressions in a dose-dependent manner; pSTAT3 level ([8]; listed as recombinant human IL6): increased pSTAT3 levels dose dependently
